Where two headings read alike, the source gives them in different places.
Key:
[1] = test system: human colon cancer cell line HCT116; assay: Synergistic effect with camptothecin (CPT) based on cell viability; details: for synergy with camptothecin: list in description
Method: The synergistic effects of the TDP1 inhibitors with CPT were tested in human colon cancer cell line HCT116 based on cell viability (Table 3, FIGS. 2-5). Cells were first seeded in a 384-well black-clear plate until 30% confluency and then incubated with a serial dilution of CPT at the range of 0-100 nM in the present or the absence of TDP1 inhibitors for 72 h at 37° C. Viable cell numbers were counted from the brightfield images taken by Biotek Cytation 5 (FIGS. 2-3). Fractional affect (Fa) and combination index (Ci) were analyzed with CompuSyn software. Synergistic scores of each TDP1 inhibitors were calculated and collected based on the data analysis from SynergyFinder (FIG. 4). […]

[2] = biological target: T1, TDP1 (Homo sapiens (Human), UniProt Q9NUW8); assay: TDP1 gel-based in vitro fluorescence assay; type: biochemical; details: for inhibition of TDP1, primary screen: 111 μM, preincubation with TDP1 at room temperature overnight; for selectivity compared with TDP2, secondary screen: preincubation overnight at room temperature; for inhibition, secondary screen: preincubation with TDP overnight at room temperature
[3] = biological target: T2, TDP2 (Homo sapiens (Human), UniProt O95551); assay: TDP2 degrading activity as stated in the description; details: list in description
[4] = biological target: T2, TDP2; assay: gel-based TDP2 fluorescence assay in vitro; type: biochemical; details: for inhibition of TDP2, primary screen: 111 μM, preincubation with TDP2 at room temperature overnight
Method: (TDP assay buffer: 50 mM Tris HCl, pH 7.5, 80 mM KCl, 2 mM EDTA, 1 mM DTT, 40 μg/ml BSA and 0.01% Tween-20. TDP1 (20 mg/mL in 25 mM Tris-HCl pH 7.2, 150 mM NaCl, 2 mM tris(2-carboxyethyl)phosphine) with 2 mL of well solution composed of 0.1 M MOPS/HEPES pH 7.5, 10% (w/v) PEG 8000, 20% (v/v) ethylene glycol, 0.03 M sodium fluoride, 0.03 M sodium bromide, 0.03 M sodium iodide, 0.03 M sodium bromide and sealed over […] well solution. AF647 labelling buffer: Tris-HCl (pH 7.2, 25 mM), NaCl (150 mM), and tris(2-carboxyethyl)phosphine hydrochloride (TCEP, 2 mM).)
(DNA only: Buffer+DMSO. DMSO only: Enzyme+DMSO. Drug: Enzyme+Drug, 25° C., 10 min+DNA, reaction at 25° C., 15 min.)

[5] = biological target: T1, TDP1; assay: gel-based TDP1 fluorescence assay of unpurified oxime libraries at 100 μM; type: biochemical; details: 100 μM in DMSO, oximes without purification
Method: The oximes were evaluated by gel-based TDP1 fluorescence assay in a concentration of 100 μM in DMSO. The fluorescence of DMSO blank vial was set as 0 and the fluorescence for the reference without TDP1 was set as 100%. Preparation: A mixture of aminooxy-containing 105 or 106 (10 μL, 30 mM in DMSO), aldehydes M1-T12 (10 μL, 30 mM in DMSO) and acetic acid (10 μL, 150 mM in DMSO) were agitated at room temperature overnight. Oximes 5-M1-T12 or 6-M1-T12 (30 uL, 10 mM in DMSO) were afforded.
Two set of oximes 105-X and 106-Y (XZ700-M1-T12, XZ699-M1-T12) ([…], 10 mM in DMSO) were prepared about 240 each starting from aminooxy-containing 105 (XZ700) or 106 (XZ699) based on the following method. A mixture of aminooxy-containing 105 or 106 (10 μL, 30 mM in DMSO) with about 240 aldehydes M1-T12 (10 μL, 30 mM in DMSO) (Table 4) separately in the present of acetic acid (10 μL, 150 mM in DMSO) were agitated at room temperature overnight in three 96-well plates in parallel. The formed oximes 105-M1 to 105-T12 and 106-M1 to 106-T12 (30 uL, 10 mM in DMSO) were diluted to 100 μM in DMSO and evaluated by gel-based TDP1 fluorescence assay. The fluorescence of the gel band of DMSO blank vial was set as 0 and the fluorescence for the reference gel band without TDP1 was set as 100%. […] Among them, with same aldehyde structures D1 and P3, both oximes 105-series (105-D1, 105-P3) and 106-series (106-D1, 106-P3) show great (>90%) TDP1 inhibition. […] To confirm the inhibitions, we have further evaluated the purified lead oximes by HPLC. (Table 7; FIG. 9)

[6] = biological target: T1, TDP1; assay: Degradation assay (western blotting) of TDP1 in HCT116 and HEK293 cells; type: cell-based; details: for TDP1 degradation by covalent inhibitors: FIG. 39; for TDP1 degrading activity: list in description; for TDP1 degradation in cells: 200 uM concentration
Method: The degradation effect of the TDP1 inhibitors on TDP1 in human colon cancer cell line HCT116 and embryonic kidney cell line HEK293 were studied. Cells were first seeded in a 6-well plate until 60-80% confluency and then incubated with a serial dilution of TDP1 inhibitors at the range of 25-200 μM for 24-72 h at 37° C. […] Samples were then sonicated at 30% for 10 s and centrifuged for 15 min at 15000 rpm at 4 Celsius. Supernatant were collected and the concentration of total protein were measured by BCA Protein Assay Kit according to its protocols. Four micrograms of total protein for each sample were loaded and TDP1 level were conducted by western blotting.

[7] = Table 7, ratio of IC50 TDP2 to TDP1
[8] = purified oximes and SMM leads, read-out: TDP1 IC50
[9] = Table 7, HPLC-purified oxime leads, read-out: TDP2 IC50
[10] = purified oximes, read-out: TDP2 IC50
[11] = Table 8, lead compounds with different linkers, read-out: TDP1 IC50
[12] = Table 8, ratio of IC50 TDP2 to TDP1
[13] = Table 8, lead compounds with different linkers, read-out: TDP2 IC50
[14] = Table 9, fluorosulfates and sulfonyl fluorides, read-out: TDP1 IC50
[15] = Table 9, fluorosulfates and sulfonyl fluorides, read-out: TDP2 IC50

T2 sequence (O95551 whole entry, species assumed): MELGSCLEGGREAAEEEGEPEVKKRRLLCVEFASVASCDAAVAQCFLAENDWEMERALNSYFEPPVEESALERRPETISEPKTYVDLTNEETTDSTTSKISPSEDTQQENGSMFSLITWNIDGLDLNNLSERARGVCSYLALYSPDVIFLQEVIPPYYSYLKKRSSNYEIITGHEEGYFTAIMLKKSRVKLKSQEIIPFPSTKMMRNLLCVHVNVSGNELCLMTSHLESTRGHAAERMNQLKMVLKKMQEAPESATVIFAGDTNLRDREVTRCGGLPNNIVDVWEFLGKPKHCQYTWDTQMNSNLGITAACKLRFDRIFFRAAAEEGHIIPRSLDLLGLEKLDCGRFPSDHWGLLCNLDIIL
T1 sequence (Q9NUW8 whole entry): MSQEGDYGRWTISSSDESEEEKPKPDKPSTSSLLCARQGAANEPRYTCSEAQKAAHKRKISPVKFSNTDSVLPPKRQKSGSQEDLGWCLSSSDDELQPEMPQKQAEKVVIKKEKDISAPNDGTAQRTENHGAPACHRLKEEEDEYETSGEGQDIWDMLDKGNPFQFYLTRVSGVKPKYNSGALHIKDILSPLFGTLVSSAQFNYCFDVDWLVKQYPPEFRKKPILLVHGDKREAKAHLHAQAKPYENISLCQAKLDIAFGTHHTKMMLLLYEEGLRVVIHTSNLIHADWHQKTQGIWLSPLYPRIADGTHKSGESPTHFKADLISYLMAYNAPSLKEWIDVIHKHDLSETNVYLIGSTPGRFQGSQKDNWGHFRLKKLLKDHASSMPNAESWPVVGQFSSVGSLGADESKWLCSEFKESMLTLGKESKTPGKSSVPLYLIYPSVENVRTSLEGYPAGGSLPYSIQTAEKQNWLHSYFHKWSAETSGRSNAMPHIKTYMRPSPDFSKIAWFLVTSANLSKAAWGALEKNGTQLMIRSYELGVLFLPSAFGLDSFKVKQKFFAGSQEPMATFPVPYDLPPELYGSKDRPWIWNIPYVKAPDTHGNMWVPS

Compound: O=C(O)c1ccc(Nc2c(-c3ccc(CO/N=C/c4ccc(-c5cnccn5)cc4)cc3)nc3cc(-c4ccccc4)ccn23)cc1 [XZ702, (E)-4-((7-Phenyl-2-(4-((((4-(pyrazin-2-yl)benzylidene)amino)oxy)methyl)phenyl)imidazo[1,2-a]pyridin-3-yl)amino)benzoic acid]
- synergy with camptothecin [1]: exhibit synergy with camptothecin
- FC (fold change) [2, 7]: 3
- IC50 [2, 8]: 3.1 ± 0.5 µM
- TDP2 degrading activity [3]: exhibit TDP2 degrading activity
- IC50 [4, 9]: 8.8 ± 2.9 µM
- IC50 [4, 10]: 8.8 ± 2.9 µM

Compound: N#Cc1ccc(-c2ccc(Cn3cc(-c4ccc(-c5nc6ccccn6c5Nc5ccc(C(=O)O)cc5)cc4)nn3)cc2)nc1 [XZ719, 4-((2-(4-(1-(4-(5-Cyanopyridin-2-yl)benzyl)-1H-1,2,3-triazol-4-yl)phenyl)imidazo[1,2-a]pyridin-3-yl)amino)benzoic acid]
- synergy with camptothecin [1]: exhibit synergy with camptothecin
- IC50 [2, 11]: 21.6 ± 5 µM
- FC (fold change) [2, 12]: 3
- TDP2 degrading activity [3]: exhibit TDP2 degrading activity
- IC50 [4, 13]: 62.4 ± 18.6 µM

Compound: O=C(O)c1ccc(Nc2c(-c3ccc(CON=Cc4ccc(-c5cnccn5)cc4)cc3)nc3cc(-c4ccccc4)ccn23)cc1 [Compound 106-E6, 4-((7-phenyl-2-(4-((((4-(pyrazin-2-yl)benzylidene)amino)oxy)methyl)phenyl)imidazo[1,2-a]pyridin-3-yl)amino)benzoic acid]
- TDP1 inhibition [5]: good inhibition

Compound: O=C(O)c1ccc(N(c2c(-c3ccccc3OS(=O)(=O)F)nc3cc(-c4ccccc4)ccn23)S(=O)(=O)F)cc1 [XZ731, 4-((Fluorosulfonyl)(2-(2-((fluorosulfonyl)oxy)phenyl)-7-phenylimidazo[1,2-a]pyridin-3-yl)amino)benzoic acid]
- inhibition of TDP1, primary screen [2]: inhibition
- IC50 [2, 14]: 22.7 µM
- selectivity compared with TDP2, secondary screen [2]: 2 fold
- inhibition, secondary screen [2]: μM inhibition
- inhibition of TDP1, secondary screen ([2]; room temperature, preincubation 10 minutes): no inhibition
- TDP2 degrading activity [3]: exhibit TDP2 degrading activity
- inhibition of TDP2, primary screen [4]: inhibition
- IC50 [4, 15]: 45.5 µM

Compound: O=C(O)c1ccc(Nc2c(-c3ccc(CO/N=C/c4ccc(N5CCCC5=O)cc4)cc3)nc3cc(-c4ccccc4)ccn23)cc1 [XZ703, (E)-4-((2-(4-((((4-(2-Oxopyrrolidin-1-yl)benzylidene)amino)oxy)methyl)phenyl)-7-phenylimidazo[1,2-a]pyridin-3-yl)amino)benzoic acid]
- FC (fold change) [2, 7]: 1
- IC50 [2, 8]: ~10 µM
- TDP2 degrading activity [3]: exhibit TDP2 degrading activity
- IC50 [4, 9]: 10.9 ± 1.1 µM
- IC50 [4, 10]: ~10 µM

Compound: N#Cc1ccc(-c2ccc(C=NOCc3ccc4nc(-c5ccccc5)c(Nc5ccc(C(=O)O)cc5)n4c3)cc2)nc1 [Compound 105-D1, 4-((6-((((4-(5-cyanopyridin-2-yl)benzylidene)amino)oxy)methyl)-2-phenylimidazo[1,2-a]pyridin-3-yl)amino)benzoic acid]
- inhibition at 100 µM [5]: > 90%

Compound: O=C(O)c1ccc(Nc2c(-c3ccccc3)nc3ccc(OS(=O)(=O)F)cn23)cc1 [XZ732, 4-((6-((Fluorosulfonyl)oxy)-2-phenylimidazo[1,2-a]pyridin-3-VA)amino)benzoic acid]
- IC50 [2, 14]: > 100 µM
- TDP2 degrading activity [3]: exhibit TDP2 degrading activity
- inhibition of TDP2, primary screen [4]: inhibition
- IC50 [4, 15]: 65.8 µM

Compound: O=C(O)c1ccc(Nc2c(-c3ccccc3OS(=O)(=O)F)nc3cc(-c4ccccc4)ccn23)cc1 [XZ730, 4-((2-(2-((Fluorosulfonyl)oxy)phenyl)-7-phenylimidazo[1,2-a]pyridin-3-yl)amino)benzoic acid]
- TDP1 degradation by covalent inhibitors [6]: degrade TDP1
- TDP1 degrading activity [6]: exhibit TDP1 degrading activity
- IC50 [2]: 17.8 µM
- inhibition of TDP1, primary screen [2]: inhibition
- selectivity compared with TDP2, secondary screen [2]: 2 fold
- inhibition, secondary screen [2]: μM inhibition
- TDP2 degrading activity [3]: exhibit TDP2 degrading activity
- IC50 [4]: 39.5 µM
- inhibition of TDP2, primary screen [4]: inhibition

Compound: O=C(O)c1ccc(Nc2c(-c3ccccc3)nc3cc(-c4ccccc4)ccn23)cc1 [XZ664, 4-((2,7-Diphenylimidazo[1,2-a]pyridin-3-yl)amino)benzoic acid]
- Synergy Score ([1]; with camptothecin (CPT), HCT116, 72 h, SynergyFinder 2.0): 9.1
- TDP1 degradation in cells [6]: shows TDP1 degradation
- TDP1 degrading activity [6]: exhibit TDP1 degrading activity
- IC50 ([4]; Table 3, read-out: TDP2 IC50): > 100 µM
- IC50 [4, 9]: > 100 µM
- IC50 [4, 13]: > 100 µM

Compound: N#Cc1ccc(-c2ccc(CO/N=C/c3ccc(-c4nc5cc(-c6ccccc6)ccn5c4Nc4ccc(C(=O)O)cc4)cc3)cc2)nc1 [XZ725]
- synergy with camptothecin [1]: exhibit synergy with camptothecin
- TDP1 degrading activity [6]: exhibit TDP1 degrading activity
- IC50 [2, 11]: 25.6 ± 4.05 µM
- IC50 [4, 13]: > 100 µM

Compound: N#Cc1ccc(-c2ccc(CO/N=C/c3ccc(-c4nc5ccccn5c4Nc4ccc(C(=O)O)cc4)cc3)cc2)nc1 [XZ724]
- TDP1 degrading activity [6]: exhibit TDP1 degrading activity
- IC50 [2, 11]: > 100 µM
- IC50 [4, 13]: > 100 µM

Compound: O=C(O)c1ccc(Nc2c(-c3ccccc3)nc3ccccn23)cc1 [XZ615]
- TDP1 degradation in cells [6]: does not
- TDP1 degrading activity [6]: exhibit TDP1 degrading activity
- IC50 [4, 9]: > 100 µM
- IC50 [4, 13]: > 100 µM

Compound: O=S(=O)(F)c1ccc(Nc2c(-c3ccccc3)nc3ccccn23)cc1 [XZ734, 4-((2-Phenylimidazo[1,2-a]pyridin-3-yl)amino)benzenesulfonyl fluoride]
- TDP1 degradation by covalent inhibitors [6]: degrade TDP1
- TDP1 degrading activity [6]: exhibit TDP1 degrading activity
- IC50 [2, 14]: > 100 µM
- IC50 [4, 15]: > 100 µM

Compound: N#Cc1ccc(-c2ccc(Cn3cc(-c4ccc5nc(-c6ccccc6)c(Nc6ccc(C(=O)O)cc6)n5c4)nn3)cc2)nc1 [XZ723, 4-((6-(1-(4-(5-Cyanopyridin-2-yl)benzyl)-1H-1,2,3-triazol-4-yl)-2-phenylimidazo[1,2-a]pyridin-3-yl)amino)benzoic acid]
- IC50 [2, 11]: 66.4 ± 3.7 µM
- FC (fold change) [2, 12]: 1
- TDP2 degrading activity [3]: exhibit TDP2 degrading activity
- IC50 [4, 13]: 69.1 ± 11.8 µM

Compound: 4-((2-(4-(2-((4-(5-((λ^2-Azaneylidene)-λ^3-methyl)pyridin-2-yl)phenyl)methoxy)ethyl)phenyl)imidazo[1,2-a]pyridin-3-yl)amino)benzoic acid [XZ727]
- TDP2 degrading activity [3]: exhibit TDP2 degrading activity
- IC50 [4, 13]: 70.5 ± 13.5 µM

Reference: patent publication US20250011330A1, “Imidazo[1,2- a]pyrazine and Imidazo[1,2- a]pyridine Based Tyrosyl-DNA Phosphodiesterase I (TDP1) Inhibitors” (The USA, As Represented by the Secretary, Department of …, priority 2021, published 2025)
